According to patent US20240245753A1, “METHODS OF REDUCING SIDE EFFECTS OF ANTI-CD30 ANTIBODY DRUG CONJUGATE THERAPY” (priority 2017, published 2024):
Where two headings read alike, the source gives them in different places.

B1: G-CSF (protein, UniProt P09919 31-207, looked up)
Granulocyte …: TPLGPASSLPQSFLLKCLEQVRKIQGDGAALQEKLVSECATYKLCHPEELVLLGHSLGIPWAPLSSCPSQALQLAGCLSQLHSGLFLYQGLLQALEGISPELGPTLDTLQLDVADFATTIWQQMEELGMAPALQPTQGAMPAFASAFQRRAGGVLVASHLQSFLEVSYRVLRHLAQP

What was measured:
[1] = tested on: relapsed or refractory sALCL; details: cited from earlier work
[2] = tested on: newly diagnosed CD30-positive mature T- and NK-cell neoplasms, including sALCL; details: given concomitantly with CHP; cited from earlier work
[3] = Randomized, double-blind Phase 3 clinical trial of A+CHP versus CHOP: safety (adverse events, exposure); details: human, in vivo
From the text: TRIAL DESIGN: Approximately 450 patients (approximately 225 patients per treatment arm) are randomized in this study. The standard of care in this patient population consists of 6-8 cycles of CHOP chemotherapy. Patients are randomized in a 1:1 manner to receive 21-day cycles of treatment in 1 of the following 2 treatment groups: Standard-of-care arm: 6-8 cycles of CHOP; or Experimental arm: 6-8 cycles of brentuximab vedotin plus CHP (A+CHP). A target of 8 cycles of study treatment are administered, per investigator decision, based on patient-specific characteristics, including stage of disease and IPI risk score.
Safety is evaluated by the incidence of adverse events, using the Medical Dictionary for Regulatory Activities (MedDRA; v19.0), and National Cancer Institute Common Terminology Criteria for Adverse Events v4.03, and by changes in vital signs, and clinical laboratory results.
All efficacy evaluations are conducted using the intent-to-treat population unless otherwise specified. Safety is analyzed in patients who received at least one dose of study drug (safety population).
Subjects were randomly assigned in a 1:1 ratio to receive 21-day cycles of either A+CHP or CHOP for 6 or 8 cycles, with the number of cycles determined at the outset and based on investigator discretion. […]

Molecule	median duration of response ([1]; 1.8 mg/kg every 3 weeks) [months]	objective response (CR+PR) rate ([1]; 1.8 mg/kg every 3 weeks) [%]	patients achieving a CR ([1]; 1.8 mg/kg every 3 weeks) [%]	tolerability ([1]; manageable side effects)	median duration of response ([1]; subset of patients who achieved a CR) [months]	maximum tolerated dose [2] [mg/kg]	effect of primary prophylactic G-CSF on febrile neutropenia [3]
brentuximab vedotin	12.6	86	57	generally well tolerated	13.2	1.8	
B1							reduced the incidence and severity
